Data taken from paper PMC7693658, “SaUspA, the Universal Stress Protein of Sulfolobus acidocaldarius Stimulates the Activity of the PP2A Phosphatase and Is Involved in Growth at High Salinity” (Frontiers in Microbiology, 2020).

T1: ArnC (Sulfolobus acidocaldarius, UniProt Q4J9J0)
T1 construct: gene Saci_1193; purified kinase; expression in E. coli Rosetta (DE3)/pLysS, construct details in earlier work
T1 sequence (Q4J9J0 1-663): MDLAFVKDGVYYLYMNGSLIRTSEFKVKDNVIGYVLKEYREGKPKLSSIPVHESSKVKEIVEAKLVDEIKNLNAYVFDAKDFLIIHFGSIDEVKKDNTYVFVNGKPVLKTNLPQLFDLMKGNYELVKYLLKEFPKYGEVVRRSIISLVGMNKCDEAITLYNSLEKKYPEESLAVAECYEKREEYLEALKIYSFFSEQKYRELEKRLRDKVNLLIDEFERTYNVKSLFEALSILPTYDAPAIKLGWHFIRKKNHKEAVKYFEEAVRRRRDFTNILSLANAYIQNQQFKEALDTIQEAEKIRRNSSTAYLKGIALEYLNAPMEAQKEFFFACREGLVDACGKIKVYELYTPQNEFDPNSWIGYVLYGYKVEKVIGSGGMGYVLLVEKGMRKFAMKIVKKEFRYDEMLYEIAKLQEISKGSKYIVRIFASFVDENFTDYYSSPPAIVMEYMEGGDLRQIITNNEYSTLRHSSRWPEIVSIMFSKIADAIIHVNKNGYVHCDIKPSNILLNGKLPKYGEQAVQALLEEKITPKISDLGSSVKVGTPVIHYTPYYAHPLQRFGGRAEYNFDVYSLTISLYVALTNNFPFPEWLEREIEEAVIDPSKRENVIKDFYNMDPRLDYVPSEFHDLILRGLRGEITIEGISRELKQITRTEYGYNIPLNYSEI

T2: SaUspA (Sulfolobus acidocaldarius, UniProt Q4JAC8)
T2 construct: gene Saci_0887
T2 sequence (Q4JAC8 1-128): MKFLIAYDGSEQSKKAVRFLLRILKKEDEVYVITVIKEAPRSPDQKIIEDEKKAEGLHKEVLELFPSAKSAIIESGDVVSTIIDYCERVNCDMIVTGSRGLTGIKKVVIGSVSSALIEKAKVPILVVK

T3: ArnD (Sulfolobus acidocaldarius, UniProt Q4J879)
T3 construct: gene Saci_1694; purified kinase; expression in E. coli Rosetta (DE3)/pLysS, construct details in earlier work
T3 sequence (Q4J879 1-413): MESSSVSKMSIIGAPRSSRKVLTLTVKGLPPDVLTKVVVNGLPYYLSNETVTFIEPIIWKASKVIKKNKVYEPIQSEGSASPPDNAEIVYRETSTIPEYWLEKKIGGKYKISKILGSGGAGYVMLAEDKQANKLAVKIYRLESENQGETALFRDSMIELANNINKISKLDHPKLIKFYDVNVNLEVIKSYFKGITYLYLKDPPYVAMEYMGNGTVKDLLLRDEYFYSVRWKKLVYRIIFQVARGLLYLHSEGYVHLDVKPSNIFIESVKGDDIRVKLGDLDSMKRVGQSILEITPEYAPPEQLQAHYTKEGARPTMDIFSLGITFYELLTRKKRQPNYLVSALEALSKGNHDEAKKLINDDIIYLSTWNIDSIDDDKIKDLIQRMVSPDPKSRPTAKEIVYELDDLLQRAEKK


Tests used:
ArnC = target: T1, ArnC; assay: in vitro phosphorylation, autophosphorylation; format: biochemical; conditions: 1 mM MnCl2, pH 8, 55°C; labelled compound
SaUspA = target: T2, SaUspA; assay: Ni-NTA co-purification with PP2A-his, Western blot; conditions: 1 mM ATP, 5 mM MgCl2, pH 8; ATP increases binding to PP2A
ArnD = target: T3, ArnD; assay: in vitro phosphorylation, autophosphorylation; format: biochemical; conditions: 1 mM MnCl2, pH 8, 55°C; labelled compound
[1] = target: the molecule itself; assay: SEC; purified Strep II-tagged SaUspA on a Superdex 200 10/300 GL column in lysis buffer (50 mM Tris pH8, 150 mM NaCl); standards of 158, 44, 17 and 1.35 kDa; peak at about 30 kDa against 16.2 kDa for the monomer

| Molecule | in vitro phosphorylation, autophosphorylation (ArnC) | Ni-NTA co-purification with PP2A-his, Western blot (SaUspA) | in vitro phosphorylation, autophosphorylation (ArnD) | stoichiometry N [1] |
| --- | --- | --- | --- | --- |
| Nc1ncnc2c1ncn2[C@@H]1O[C@H](COP(=O)(O)OP(=O)(O)OP(=O)(O)O)[C@@H](O)[C@H]1O [ATP] | autophosphorylation was detected for both ArnC and ArnD | This indicated that ATP-binding of SaUspA enhanced its interaction with PP2A | autophosphorylation was detected for both ArnC and ArnD |  |
| C-terminally StrepII-tagged SaUspA (universal stress protein UspA of Sulfolobus acidocaldarius, Saci_0887) (natural protein, UniProt Q4JAC8 1-128, looked up, SaUspA (UspA, Saci_0887), universal stress protein of Sulfolobus acidocaldarius; printed molecular weight 16.2 kDa; Made nucleotide free by ammonium sulfate precipitation; in some samples pre-incubated with 1 mM ATP and 5 mM MgCl2; also called SaUspA-Strep; SaUspA^WT; not shown: StrepII, C-terminal, kept) MKFLIAYDGSEQSKKAVRFLLRILKKEDEVYVITVIKEAPRSPDQKIIEDEKKAEGLHKEVLELFPSAKSAIIESGDVVSTIIDYCERVNCDMIVTGSRGLTGIKKVVIGSVSSALIEKAKVPILVVK |  |  |  | 2 |
